Marks after values point to notes of the source that are not given here.
How the values were obtained:
[1] = system: UTP-stimulated Ca2+ response in HT-29 cells; test: Ca FLIPR TETRA assay, ANTAGONIST mode, stimulation with 0.6 μM UTP; format: cell-based, human; conditions: Homo sapiens; HT-29 cells, antagonist mode, stimulation with 0.6 μM UTP
Method in brief: (§1)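 Antagonist-mode assay: dye-loaded HT-29 cells, compound 30 min at r.t., then stimulated with final 8 μM SLIGKV, 3.1 U/mL trypsin, 1 U/mL thrombin or 0.6 μM UTP; calcium fluorescence read.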

[2] = molecular target: T1, PAR2 (HT-29 cells, trypsin activation) (Homo sapiens, UniProt P55085); test: Ca FLIPR TETRA assay, ANTAGONIST mode, stimulation with 3.1 U/mL trypsin; format: cell-based; conditions: HT-29 cells, antagonist mode, stimulation with 3.1 U/mL trypsin
T1 construct: host or cells: HT-29 cells
T1 sequence (P55085 26-397): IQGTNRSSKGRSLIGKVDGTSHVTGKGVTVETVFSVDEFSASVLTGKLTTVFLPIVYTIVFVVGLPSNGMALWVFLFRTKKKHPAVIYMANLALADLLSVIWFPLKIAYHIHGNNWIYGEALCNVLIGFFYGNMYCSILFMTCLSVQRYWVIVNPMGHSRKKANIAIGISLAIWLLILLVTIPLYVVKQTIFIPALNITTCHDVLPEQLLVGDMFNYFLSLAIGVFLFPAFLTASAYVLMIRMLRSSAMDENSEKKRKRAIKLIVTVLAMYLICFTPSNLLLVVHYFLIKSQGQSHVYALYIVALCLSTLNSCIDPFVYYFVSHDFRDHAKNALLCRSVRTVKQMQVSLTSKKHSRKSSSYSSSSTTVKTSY
Method in brief: as §1

[3] = system: Thrombin-stimulated Ca2+ response in HT-29 cells; test: Ca FLIPR TETRA assay, ANTAGONIST mode, stimulation with 1 U/mL Thrombin; format: cell-based, human; conditions: Homo sapiens; HT-29 cells, antagonist mode, stimulation with 1 U/mL Thrombin
Method in brief: as §1

[4] = In vivo rat pharmacokinetics (intravenous and oral); conditions: plasma; for clearance: intravenous 0.5 to 1 mg/kg, read-out: Clp; for Vd: intravenous, read-out: Vss; for bioavailability: oral by gavage; for half-life: read-out: T ½ (converted)
Procedure: Example 61: Protocol for Testing PAR2 Compounds In Vivo Rat Pharmacokinetics Experiments
Compounds delivered by intravenous route were formulated using a solution formulation consisting of 5% N-methylpyrrolidone 10% Vitamin E-TPGS and 85% water (v/v/) or a solution formulation consisting of 25% N-methylpyrrolidone 35% polyethylene glycol 400 and 40% water (v/v/). Intravenous formulations were administered by a bolus injection (over approximately 10 seconds) using a hypodermic needle attaches to a syringe (tail vein). The dose volume was varied from 1 to 2 mL/kg and the dose was varied from 0.5 to 1 mg/kg. Compounds delivered orally were formulated as a solution formulation consisting of 5% N-methylpyrrolidone 10% Vitamin E-TPGS and 85% water (v/v/) or as fine suspension using a cellulose derivative suspending agent with or without the addition of a wetting agent/surfactant. Milling of large particles was performed as needed to reduce particle size using focused electroacoustic milling, homogenization or low energy media milling. A spray-dried solid dispersion was prepared for key compounds using 1:1 combination with cellulose derivatives. Test compounds were administered orally by gavage using a gavage plastic needle attached to a syringe. The dose volume was varied from 5 to 10 mL/kg and the dose was varied from 1 to 600 mg/kg.
Rats were bled by venipuncture (jugular vein) and the samples were collected into tubes containing K3EDTA. The tubes were placed on wet ice until processed. The samples were centrifuged for approximately 10 minutes (at approximately 4° C.) within approximately 30 minutes of collection to prepare plasma or diluted in citrate buffer (1:3) and stored frozen (approximately −30° C.). Thawed plasma or whole blood samples were extracted by protein precipitation using an organic solvent followed by centrifugation. The supernatants were separated by high-performance liquid chromatography coupled to mass spectrometry detection. A calibration curve was prepared using reference standard compounds spiked into either blank plasma or whole blood matrices and extracted similarly to unknown samples. Pharmacokinetic parameters were calculated using non-compartmental analysis.

[5] = system: carrageenan-induced paw edema; test: Rat carrageenan-induced paw edema model; format: in vivo, Sprague Dawley rats; conditions: given before carrageenan challenge
Procedure: (§2) Male Sprague Dawley rats and BALB/c mice were housed in groups in a temperature controlled room and were acclimatized in the animal facility for at least three days prior to use. Experiments were performed during the light phase of the cycle. Animals have food and water ad libitum.
Example 63: Rat Carrageenan-Induced Paw Edema Model
Peripheral inflammation was induced by intra-plantar administration of 100 ul of a 1% w/volume (in saline) carrageenan solution under isoflurane anesthesia. The degree of swelling was assessed using the plethysmometer at 2-3-4-5-6 h after carrageenan injection. Test compound or vehicle (0.5% MC/0.1% SDS) was systemically administered at the indicated doses in a volume of 5 mL/kg either I-3 hour before carrageenan challenge (Table 9) or 2 hours post carrageenan challenge (Table 10).
(§3) Data are expressed as the mean % effect. Statistical significance was assessed using t-test for comparison between naive and inflamed rats, and one-way ANOVA followed by post-hoc comparison test for overall drug effectiveness. A difference between groups is considered significant with a p value of <0.05. *, p<0.05; **, p<0.01; ***, p<0.001 vs. vehicle.

[6] = molecular target: T2, PAR2 (HT-29 cells, SLIGKV activation) (Homo sapiens, UniProt P55085); test: Ca FLIPR TETRA assay, ANTAGONIST mode, stimulation with 8 μM SLIGKV; format: cell-based; conditions: HT-29 cells, antagonist mode, stimulation with 8 μM SLIGKV
T2 construct: host or cells: HT-29 cells
T2 sequence (P55085 26-397): T1 sequence (P55085 26-397)
Method in brief: as §1

[7] = system: tryptase-induced mechanical hypersensitivity; test: Rat tryptase-induced mechanical hypersensitivity model; format: in vivo, Sprague Dawley rats; conditions: for % inhibition of tryptase-induced nociception: given 3-18 h before the tryptase challenge; for % inhibition of an established tryptase-induced nociception: given 30 minutes post tryptase challenge
Procedure: as §2
Example 64: Rat Tryptase-Induced Mechanical Hypersensitivity Model
Peripheral sensitization was induced by intra-dermal administration of 500 ng of tryptase in a volume of 10 ul PBS under isoflurane anesthesia. Rats were then placed on a wire mesh grid in separate compartments and allowed to acclimatize before testing. Mechanical hypersensitivity was assessed 30 min after tryptase injection using calibrated von Frey filaments applied perpendicular to the plantar surface of the affected paw using the up-and-down method. Test compounds or vehicle (0.5% MC/0.1% SDS) were systemically administered at doses indicated in a volume of 5 mL/kg 3-18 h before the tryptase challenge (Table 11) or 30 minutes post tryptase challenge (Table 12).
as §3

Question: What does the source list for `CC(C)(C)c1cc(-c2ccc(Cl)cc2)nn2cc(C(=O)N3CCN(C(=O)[C@H]4C[C@@](C)(O)C4)CC3(C)C)nc12` [Compound I-421]?
Answer: IC50 [1]: > 1000 nM; IC50 [2]: 0.2 nM; IC50 [3]: > 1000 nM; clearance [4]: 6.15 mL/min/kg; Vd [4]: 3.07 L/kg; bioavailability [4]: 189%; half-life [4]: 9.62 h; % inhibition of carrageenan induced paw edema ([5]; dose 1 mg/kg): 11%; % inhibition of carrageenan induced paw edema ([5]; dose 10 mg/kg): −32** %; IC50 [6]: 0.3 nM

Question: Which IC50 [1] does the source give for `Cc1nnc(C(=O)N2CCN(C(=O)c3cn4nc(C5CCC(F)(F)CC5)cc(C(C)(C)C)c4n3)C(C)(C)C2)[nH]1` [Compound I-448, [8-tert-butyl-6-(4,4-difluorocyclohexyl)imidazo[1,2-b]pyridazin-2-yl]-[2,2-dimethyl-4-(5-methyl-4H-1,2,4-triazole-3-carbonyl)piperazin-1-yl]methanone] here?
Answer: 14500 nM

Question: And the IC50 [2]?
Answer: 11.4 nM

Question: What about the IC50 [3] of the same molecule?
Answer: 17500 nM

Question: And the clearance [4]?
Answer: 6.44 mL/min/kg

Question: What about the Vd [4] of the same molecule?
Answer: 1.84 L/kg

Question: What about the bioavailability [4] of the same molecule?
Answer: 87%

Question: And the half-life [4]?
Answer: 5.14 h

Question: What about the “% inhibition of carrageenan induced paw edema” value ([5]; dose 20 mg/kg) of the same molecule?
Answer: 15%

Question: What about the IC50 [6] of the same molecule?
Answer: 6.9 nM

Question: Which IC50 [1] does the source give for `Cc1nc(C(=O)N2CCN(C(=O)c3cn4nc(-c5ccc(Cl)cc5)cc(C(C)(C)C)c4n3)C(C)(C)C2)n[nH]1` [Compound I-436, [8-tert-butyl-6-(4-chlorophenyl)imidazo[1,2-b]pyridazin-2-yl]-[2,2-dimethyl-4-(5-methyl-1H-1,2,4-triazole-3-carbonyl)piperazin-1-yl]methanone] here?
Answer: 3600 nM

Question: What about the IC50 [2] of the same molecule?
Answer: 0.4 nM

Question: And the IC50 [3]?
Answer: 11000 nM

Question: And the clearance [4]?
Answer: 4.21 mL/min/kg

Question: What about the Vd [4] of the same molecule?
Answer: 2.05 L/kg

Question: What about the bioavailability [4] of the same molecule?
Answer: 77%

Question: And the half-life [4]?
Answer: 7.5 h

Question: And the “% inhibition of carrageenan induced paw edema” value ([5]; dose 1 mg/kg)?
Answer: −17* %

Question: What about the “% inhibition of carrageenan induced paw edema” value ([5]; dose 30 mg/kg) of the same molecule?
Answer: 36** %

Question: What about the IC50 [6] of the same molecule?
Answer: 0.3 nM

Question: For `CC(C)(C)c1cc(-c2ccc(F)cc2)nn2cc(C(=O)N3CCN(C(=O)c4c[nH]cn4)CC3(C)C)nc12` [Compound I-232], which IC50 [1] is on record?
Answer: 900 nM

Question: And the IC50 [2]?
Answer: 1.4 nM

Question: What about the IC50 [3] of the same molecule?
Answer: 890 nM

Question: And the clearance [4]?
Answer: 16.9 mL/min/kg

Question: What about the Vd [4] of the same molecule?
Answer: 3.3 L/kg

Question: What about the bioavailability [4] of the same molecule?
Answer: 75%

Question: What about the half-life [4] of the same molecule?
Answer: 2.5 h

Question: What about the “% inhibition of carrageenan induced paw edema” value ([5]; dose 10 mg/kg) of the same molecule?
Answer: 19* %

Question: What about the IC50 [6] of the same molecule?
Answer: 1 nM

Question: With `CC(C)(C)c1cc(-c2ccc(F)cc2)nn2cc(C(=O)N3CCN(C(=O)c4ccn[nH]4)CC3(C)C)nc12` [Compound I-201] as the molecule, how does the IC50 [1] read?
Answer: 560 nM

Question: And the IC50 [2]?
Answer: 0.9 nM

Question: And the IC50 [3]?
Answer: 370 nM

Question: And the clearance [4]?
Answer: 10.9 mL/min/kg

Question: What about the Vd [4] of the same molecule?
Answer: 3.3 L/kg

Question: And the bioavailability [4]?
Answer: 55%

Question: And the half-life [4]?
Answer: 4.3 h

Question: What about the “% inhibition of tryptase-induced nociception” value ([7]; dose 5 mg/kg) of the same molecule?
Answer: 52** %

Question: And the “% inhibition of tryptase-induced nociception” value ([7]; dose 15 mg/kg)?
Answer: 65*** %

Question: What about the “% inhibition of carrageenan induced paw edema” value ([5]; dose 5 mg/kg) of the same molecule?
Answer: 55** %

Question: What about the “% inhibition of carrageenan induced paw edema” value ([5]; dose 20 mg/kg) of the same molecule?
Answer: 60*** %

Question: And the IC50 [6]?
Answer: 0.7 nM

Question: Which results are given for `CC(C)(C)c1cc(-c2ccc(F)cc2)nn2cc(C(=O)N3CCN(C(=O)C4CC(O)(C(F)(F)F)C4)CC3(C)C)nc12` (centres unmarked) [Compound I-199]?
Answer: IC50 [1]: > 1000 nM; IC50 [2]: 0.2 nM; IC50 [3]: > 1000 nM; clearance [4]: 3.2 mL/min/kg; Vd [4]: 4.2 L/kg; bioavailability [4]: 67%; half-life [4]: 18.1 h; % inhibition of carrageenan induced paw edema ([5]; dose 7.5 mg/kg): 14%; % inhibition of carrageenan induced paw edema ([5]; dose 20 mg/kg): 52*** %; IC50 [6]: 0.1 nM

Question: What does the source list for `Cc1cc(-c2cc(C(C)C)c3nc(C(=O)N4CCNC(=O)C4(C)C)cn3n2)ccc1F` [Compound I-244, 4-[6-(4-fluoro-3-methyl-phenyl)-8-isopropyl-imidazo[1,2-b]pyridazine-2-carbonyl]-3,3-dimethyl-piperazin-2-one]?
Answer: IC50 [1]: 3650 nM; IC50 [2]: 10.2 nM; IC50 [3]: 3750 nM; clearance [4]: 4.8 mL/min/kg; Vd [4]: 1.6 L/kg; bioavailability [4]: 70%; half-life [4]: 5.1 h; % inhibition of an established tryptase-induced nociception ([7]; dose 2 mg/kg): 21* %; % inhibition of an established tryptase-induced nociception ([7]; dose 6 mg/kg): 43* %; % inhibition of an established tryptase-induced nociception ([7]; dose 20 mg/kg): 48* %; % inhibition of carrageenan induced paw edema ([5]; dose 2 mg/kg): 42** %; % inhibition of carrageenan induced paw edema ([5]; dose 6 mg/kg): 51** %; % inhibition of carrageenan induced paw edema ([5]; dose 20 mg/kg): 67*** %; IC50 [6]: 7.5 nM

Question: What does the source list for `CC(C)(C)c1cc(-c2ccc(C(F)(F)F)cc2)nn2cc(C(=O)N3CCNC(=O)C3(C)C)nc12` [Compound I-283, 4-[8-tert-butyl-6-[4-(trifluoromethyl)phenyl]imidazo[1,2-b]pyridazine-2-carbonyl]-3,3-dimethyl-piperazin-2-one]?
Answer: IC50 [1]: > 1000 nM; IC50 [2]: 2 nM; IC50 [3]: > 1000 nM; clearance [4]: 1.07 mL/min/kg; Vd [4]: 6.82 L/kg; bioavailability [4]: 76%; half-life [4]: 77.9 h; % inhibition of carrageenan induced paw edema ([5]; dose 20 mg/kg): 19* %; IC50 [6]: 2.2 nM

Question: What does the source list for `CC(C)(C)c1cc(-c2ccc(F)cc2)nn2cc(C(=O)N3CCN(C(=O)c4nc[nH]n4)CC3(C)C)nc12` [Compound I-227]?
Answer: IC50 [1]: 420 nM; IC50 [2]: 1.6 nM; IC50 [3]: 570 nM; % inhibition of carrageenan induced paw edema ([5]; dose 0.3 mg/kg): 35* %; % inhibition of carrageenan induced paw edema ([5]; dose 10 mg/kg): 64** %; IC50 [6]: 0.7 nM

— patent US20190119282A1, “IMIDAZOPYRIDAZINES USEFUL AS INHIBITORS OF THE PAR-2 SIGNALING PATHWAY” (Vertex Pharmaceuticals Incorporated, priority 2013, published 2019)
